Three compounds from patent US20190000905A1, “Gynostemma pentaphyllum fermented extracts comprising Saponins as an active functional food ingredient and preparation method thereof” (BTC Co., Ltd., priority 2017, published 2019) can be followed below.

Common to all, as to assay type: cell-based
The test system of one assay is AMPK. Briefly: Effect of saponins of the extract on activity of AMPK in 3T3-L1 cells (p-AMPK). Conditions: FIG. 1 and FIG. 2. From the text:
(§1) The effect of the saponins of the extract according to the present disclosure on the activity of AMPK, ACC and FAS in 3T3-L1 cells is shown in FIG. 1 and FIG. 2. AMPK is an enzyme involved in fatty acid oxidation, inhibition of adipocyte differentiation, etc. It is involved in inhibition of fatty acid biosynthesis and fatty acid degradation by phosphorylating (inactivating) ACC through AMPK phosphorylation (p-AMPK). FAS (fatty acid synthase) plays a role of promoting fatty acid synthesis.

Another assay deals with ACC. In words: Effect of saponins of the extract on activity of ACC in 3T3-L1 cells (p-ACC). Conditions: FIG. 1 and FIG. 2.
Description: as §1

Assay [1] deals with FAS (fatty acid synthase). In words: Effect of saponins of the extract on FAS expression in 3T3-L1 cells. The note with it: FIG. 1 and FIG. 2.
Description: as §1

The next assay relates to fat accumulation. Briefly: Effect of saponins of the fermented extract on fat accumulation (FIG. 3). Conditions: as compared to a control group. From the text: The effect of the saponins of the extract of fermented Gynostemma pentaphyllum according to the present disclosure on fat accumulation was investigated.

Turning to `CC(C)=CCC[C@](C)(O)[C@H]1CC[C@]2(C)[C@@H]1[C@H](O)C[C@@H]1[C@@]3(C)CC[C@H](O[C@@H]4O[C@H](CO)[C@@H](O)[C@H](O)[C@H]4O[C@@H]4O[C@H](CO)[C@@H](O)[C@H](O)[C@H]4O)C(C)(C)[C@@H]3CC[C@]12C` [ginsenoside Rg3], in the assay with AMPK, the “activation of p-AMPK” value was “activated p-AMPK and p-ACC in a concentration-dependent manner”. Further, the “activation of p-ACC” value in the assay on ACC is “activated p-AMPK and p-ACC in a concentration-dependent manner”. Also, the “expression of FAS (fatty acid synthase)” value in assay [1] is given as “inhibiting the expression of FAS”. Besides, the “inhibition of fat accumulation” value in the assay with fat accumulation is recorded as “exhibited an effect of inhibiting fat accumulation”.

Regarding `CC(C)=CCC[C@@](C)(O)[C@H]1CC[C@]2(C)[C@@H]1[C@H](O)C[C@@H]1[C@@]3(C)C[C@@H](O)[C@H](O[C@@H]4O[C@H](CO)[C@@H](O)[C@H](O)[C@H]4O[C@@H]4O[C@H](CO)[C@@H](O)[C@H](O)[C@H]4O)C(C)(C)[C@@H]3CC[C@]12C` [gypenoside LI], the “activation of p-AMPK” value in the assay with AMPK was “activated p-AMPK and p-ACC in a concentration-dependent manner”. In addition, in the assay on ACC, the “activation of p-ACC” value is “activated p-AMPK and p-ACC in a concentration-dependent manner”. Further, in assay [1], the “expression of FAS (fatty acid synthase)” value is recorded as “inhibiting the expression of FAS”. For the same compound, the “inhibition of fat accumulation” value in the assay on fat accumulation is on record as “exhibited an effect of inhibiting fat accumulation”.

`CC(C)=CCC[C@](C)(O)[C@H]1CC[C@]2(C)[C@@H]1[C@H](O)C[C@@H]1[C@@]3(C)C[C@@H](O)[C@H](O[C@@H]4O[C@H](CO)[C@@H](O)[C@H](O)[C@H]4O[C@@H]4O[C@H](CO)[C@@H](O)[C@H](O)[C@H]4O)C(C)(C)[C@@H]3CC[C@]12C` [gypenoside L]: the “inhibition of fat accumulation” value in the assay with fat accumulation was “exhibited an effect of inhibiting fat accumulation”.
